The text below walks through data of the METLIN SMRT retention time set (Domingo-Almenara et al. 2019).

The series can be described thus: gradient 5% acetonitrile 3 min, to 50% in 2 min, to 85% in 15 min, held 3 min, 100 µL/min. Particulars: column: Zorbax Extend-C18 2.1 x 50 mm; eluents: water / acetonitrile, 0.1% formic acid. An outline of the steps: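 In both positive and negative ionization mode, a quadrupole time-of-flight mass spectrometer coupled to HPLC analyzed pure standards run in mixtures of ~100 molecules. The Zorbax Extend-C18 column (2.1 × 50 mm, 1.8 μm) was operated at 100 μL/min with water and acetonitrile, each containing 0.1% formic acid. The dead volume was 40 μL and the dwell volume 900 μL. Retention time came from adduct peaks that were computationally picked and individually inspected by hand.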
The molecule `COc1ccc(NC(=O)C2=C(C)NC(=O)NC2c2ccccc2Br)c(OC)c1` (stereo not given) returned an RP-LC retention time of 698 s. `Cc1ccc(C)c(NC(=O)Cn2c(N3CCOCC3)nc(C)cc2=O)c1`: the RP-LC retention time turned out to be 770 s. As for `Cc1ccc(C(=O)N2CCN(c3nc4ccccc4n(CC(C)C)c3=O)CC2)s1`, the figure is 1140 s; as for `CCc1ccc(NC(=O)C2CCN(S(=O)(=O)c3ccc4c(c3)sc(=O)n4C(C)C)CC2)cc1`, 1060 s; as for `CCC(c1cccs1)N1C(=O)[C@H]2CN(S(=O)(=O)c3cc(C)ccc3C)C[C@H]2C1=O` (stereo not given in full), 1090 s. `CCn1c(CC2C(=O)Nc3ccccc32)nc2ccccc2c1=O` (stereo not given) had an RP-LC retention time of 730 s. Molecule `CC(=O)N1c2ccc(S(=O)(=O)N3CCCCC3)cc2CC1C(=O)Nc1cc(C)ccc1C` (stereo not given) registered an RP-LC retention time of 912 s. In turn, `O=C(c1ccoc1)N1CCCC(c2nnc3n2CCN(C2CCCC2)C3)C1` (stereo not given) gave an RP-LC retention time of 562 s. `CCc1nn(C)c(=O)c2cc(S(=O)(=O)NCc3ccc(Cl)cc3)cn12` registered an RP-LC retention time of 911 s.

With `CCn1c(N2CCC(C(=O)NCc3ccc4c(c3)OCO4)CC2)cc(=O)n(C)c1=O`, the RP-LC retention time was found to be 740 s.

`Cc1cc2c(cc1S(=O)(=O)N1CCC(C(=O)NCc3ccccc3Cl)CC1)OCC(=O)N2` displayed an RP-LC retention time of 789 s. On to `COc1cc(C(=O)N2CCN(c3cc(-c4cccs4)[nH]n3)CC2)cc(OC)c1OC`, for which the RP-LC retention time came out at 699 s. In turn, `O=[N+]([O-])c1cccc(/C=C/c2ccccn2)c1` came in with an RP-LC retention time of 747 s. As for `COCCn1cc(C(=O)Nc2ccc(C(C)=O)cc2)c2nn(-c3ccccc3)c(=O)c-2c1`, the figure is 865 s; as for `CCCCNC(=O)C1CCN(C(=O)c2ncn3c2COC(c2ccc(F)cc2)C3)CC1` (stereo not given), 722 s. The same measure for `O=c1c2ccccc2n(Cc2nc(-c3cccc(Cl)c3)no2)c(=O)n1CC1CCCO1` (stereo not given): 1110 s; for `COc1cc(C(=O)Nc2ncc(Cc3cccc4ccccc34)s2)cc(OC)c1OC`: 1030 s. As for `CCCS(=O)(=O)c1nc2ccc(NS(=O)(=O)c3cc(F)cc(F)c3)cc2s1`, the RP-LC retention time came out at 952 s. As for `COc1cccc(NC(=O)N2CCCC(C)(C(=O)NCc3ccccc3C)C2)c1` (stereo not given), the figure is 890 s. The same measure for `CCN(CC)S(=O)(=O)c1ccc2c(c1)CC(C(=O)N1CCN(C3CCCCC3)CC1)N2C(C)=O` (stereo not given): 666 s. For `CCOc1ccccc1-c1noc(-c2cn(C)c3ccc(F)cc3c2=O)n1`, the RP-LC retention time was found to be 833 s.

`Cc1ccc(NS(=O)(=O)c2cc3n(c2)CCCNC3=O)c(C)c1` had an RP-LC retention time of 678 s. The molecule `Cc1nnc(-c2ccc3ccn(CC(=O)Nc4ccc(F)c(F)c4)c3c2)o1` registered an RP-LC retention time of 829 s.

As for `CCCCC(=O)Nc1nc(-c2ccc3c(c2)N(CC)C(=O)CO3)c(C)s1`, the RP-LC retention time came out at 982 s.

`COc1ccc(Cl)cc1C(=O)Nc1cc(-c2cccnc2)no1` gave an RP-LC retention time of 902 s. In the case of `O=C(NC1CCCCC1)c1ccc(Nc2c(-c3ccc(Cl)cc3)nc3cnccn23)cc1`, the RP-LC retention time is 909 s. `CN1C(=O)C2(CCN(C(=O)CCc3ccccc3)C2)c2ccccc21` (stereo not given) returned an RP-LC retention time of 803 s. The same measure for `CCc1nn2c(CNS(=O)(=O)c3cc(C)cc(C)c3)c(-c3ccccc3)nc2s1`: 941 s; for `CN(C)CCNC(=O)CCc1cc2ccccc2[nH]c1=O`: 569 s; for `Cn1cnc(C(=O)N2CC(F)(F)C[C@H]2c2nc(C3CC3)no2)c1`: 667 s.

Molecule `Cc1ccc(CNS(=O)(=O)c2ccc(-c3c(C)noc3C)cc2)cc1` had an RP-LC retention time of 996 s. `CCCN1CCN(CCCNC(=O)CCCn2c(=O)c3cccn3c3ccc(F)cc32)CC1` came in with an RP-LC retention time of 584 s. Molecule `O=C(C1CCCO1)N1CCn2c(nnc2-c2ccccc2)C1` (stereo not given) yielded an RP-LC retention time of 608 s. As to `Cc1cccc(NC(=O)CN2C(=O)CCc3cc(S(=O)(=O)N4CCCCC4C)ccc32)c1` (stereo not given), the RP-LC retention time was determined as 848 s. On to `O=C(CN1C(=O)NC2(CCCCC2)C1=O)Nc1ccc(F)cc1`, for which the RP-LC retention time stood at 731 s. Consider `Cc1cc(NC(=O)Cn2c(=O)oc3ccccc32)n(-c2nc3c(F)cccc3s2)n1`, for which the RP-LC retention time came out at 1040 s. Molecule `COc1cccc(CC(=O)NCC(=O)Nc2nc3ccccc3[nH]2)c1` gave an RP-LC retention time of 618 s. The molecule `COc1ccc(CNC(=O)Cn2c(=O)c(CCC(=O)NCC(C)C)nc3ccccc32)cc1` gave an RP-LC retention time of 762 s. `CN(C)CCn1nnc2cc(-c3noc(-c4ccc(Br)cc4)n3)ccc21` registered an RP-LC retention time of 727 s. As for `CCc1ccccc1NC(=O)N1CCN(C2=CC3=NC(CC)CN3C=N2)CC1` (stereo not given), the figure is 642 s. `COc1ccccc1CNC(=O)CN1CCN(Cc2ccccc2)C1=O` had an RP-LC retention time of 773 s. The same measure for `Cc1cccc(N2CCN(C(=O)COc3ccc(NC(=O)C4CC4)cn3)CC2)c1`: 754 s; for `O=C(Cn1nc2n(c1=O)CCCCC2)Nc1ccc(F)c(Cl)c1`: 729 s; for `COc1ccc(CNC(=O)c2cn3cccc(C)c3n2)cc1OC`: 604 s. For the molecule `Fc1ccc(Nc2ncnc3nc[nH]c23)cc1`, the RP-LC retention time was determined as 582 s. In turn, `O=C(Nc1ccc(N2CCN(C3CCCCC3)C2=O)nc1)c1ccccc1F` showed an RP-LC retention time of 850 s.

As for `Cc1cc(C)n2nc(SCC(=O)NC(C)C)nc2n1`, the RP-LC retention time stood at 613 s. The same measure for `O=C(NCc1ccccc1Cl)C(=O)NCC1(CO)CC1`: 670 s. `OC(CNCc1ccc(-c2ccc(Cl)cc2Cl)o1)c1ccccc1` (stereo not given) returned an RP-LC retention time of 800 s. `O=C(c1ccc(F)cc1Cl)N1CCc2nc(-c3ccc(Cl)cc3)ncc2C1` returned an RP-LC retention time of 1160 s. `CCC(C)Nc1nc(-c2ccc(C)cc2)nnc1C` (stereo not given) had an RP-LC retention time of 719 s. The same measure for `N#Cc1ccccc1Cn1cnc2nc3c(cc2c1=O)CCCC3`: 733 s; for `O=C(O)c1ccc(Nc2c(-c3cccc(Br)c3)nc3cnccn23)cc1`: 736 s; for `CC(NC(=O)c1n[nH]c2ccccc12)C(=O)N1CCN(c2ccccn2)CC1` (stereo not given): 595 s. Molecule `C[C@@H](NC(=O)c1ccccc1F)C(=O)NCc1cscn1` returned an RP-LC retention time of 620 s.

`COC(=O)c1ccc(-c2nc3cnccn3c2Nc2ccc3c(c2)OCCO3)cc1` yielded an RP-LC retention time of 813 s.

As for `O=C(NCCN1CCCC1)C1CCN(c2nc3cccnc3s2)CC1`, the RP-LC retention time was 561 s.

`O=C(NCCCc1ccccc1)c1nnc(-c2ccc(S(=O)(=O)N3CCCCC3)cc2)o1` had an RP-LC retention time of 1070 s.

Consider `COCC(=O)Nc1cnc(-c2cccnc2)nc1`, for which the RP-LC retention time worked out at 554 s.

Regarding `COc1cccc(CNC2=NCCNC23CCN(S(=O)(=O)c2ccc(C)c(C)c2)CC3)c1`, the RP-LC retention time was 775 s.
